Laboratory results as given in patent US20260355142A1, “AMORPHOUS OTE[…] COMPOSITIONS AND USES THEREOF AND DOSAGE REGIMENS FOR OTENAPROXESUL” (ANTIBE THERAPEUTICS INC., priority 2022, published 2026).

How the values were obtained:
liver transaminases = assay: 28-day PK/PD and AME clinical study in healthy older adults, liver transaminase elevations; assay type: in vivo, human; settings: 100 mg cohort, full drug administration period
Method: The study was designed in part on the observation that across the otenaproxesul treatment groups, treatment-related >3×ULN (“upper limit of normal”) ALT and/or AST transaminase levels were noted (almost exclusively after the 14-day dosing interval) in 9.8% (6/61) of patients in the 150 mg arm, 7.2% (9/125) of patients in the 200 mg arm and 12.9% (17/132) patients in the 250 mg arm, with this issue being substantially biased towards females),
In this clinical trial, 28-day human safety/PK data was generated to complement the 14-day DRF data from Example 2. Biomarker data/dose (e.g., thromboxane B2) were also generated using standard ELISA assay kits.
Otenaproxesul was supplied as 75 mg, 100 mg and 125 mg, brown, film-coated tablets and was in crystalline form. Patients were instructed to take 1 tablet of otenaproxesul in the morning after an overnight fast. Food intake was restricted until at least 30 minutes after the morning dose.
The study enrolled a total of 42 subjects on either a 75 mg or 100 mg dose per day of otenaproxesul, of whom 35 had completed the 28-day drug administration period, with seven subjects having been administered the drug for 21 days before the study was paused. […]

[1] = Phase 1 SAD clinical trial, plasma naproxen (M25) levels; assay type: in vivo, human; settings: single oral dose of about 1500 mg to 2000 mg
Method: Otenaproxesul (crystalline form) was orally administered at a range of doses to healthy volunteers, both as a single dose, and as a daily (or twice-daily) dose for 14 days. Each cohort consisted of 8 subjects, with 6 receiving otenaproxesul and 2 receiving placebo. A total of 8 cohorts were studied in the single-dose study (25 mg, 75 mg, 150 mg, 300 mg, 500 mg, 1000 mg, 1500 mg and 2000 mg), and 3 cohorts in the multiple-dose study (250 and 750 once daily, and 750 mg bid (e.g., 1500 mg/day) for 14 days). All adverse events were recorded, and blood samples were drawn prior to and for at least 72 h after drug administration for measurement of otenaproxesul-derived naproxen levels. Routine cardiovascular, renal, hepatic and hematological biomarkers were monitored, along with clinical signs. […]
It is noted from the pharmacokinetic curves in FIG. 1 showing naproxen metabolite (M25) plasma levels following single dose crystalline otenaproxesul administrations in healthy subjects from the Phase 1 single ascending dose (SAD) study in Example 1, the time to attain maximal plasma concentration of M25 varies widely between 6 and 48 hours across the dosage spectrum. […] Therefore, while not being bound by theory, a single 2000 mg treatment is predicted to provide pain relief for 3 days and possibly to 5 days based upon measured and projected M25 plasma concentrations. […]

[2] = Dog pharmacokinetics of otenaproxesul amorphous dispersion (Example 20); assay type: in vivo, male Beagle dogs
Method: Summary: Over a 4-day treatment period dogs were administered four treatment doses of the otenaproxesul amorphous solid dispersion formulation (exemplary ASD no. 1) and a crystalline otenaproxesul control dose. Treatments corresponding to human equivalent doses of 70.2 mg, 140.4 mg, 280.8 mg and 561.6 mg otenaproxesul were administered once daily to male (n=4) dogs. Crystalline otenaproxesul was administered at the NOAEL dose equivalent to a human dose of 526.5 mg otenaproxesul once daily.
Pharmacokinetic data were evaluated on M25 plasma naproxen concentrations at 60 minutes post administration (C60), Day 1 M25 plasma exposure (AUC0-24) and Day 4 M25 plasma exposure (AUC0-Last). Assessment of dose proportional characteristics for M25 plasma concentration at 60 minutes post administration (C60) and at maximal concentration (Cmax) and AUC exposure were measured on Day 1 and Day 4 of treatment.

liver adverse effects = assay: Clinical study of three crystalline otenaproxesul regimens, liver safety; assay type: in vivo, human; settings: 1500 mg single; 1500 mg + 100 mg Days 2-5; 2000 mg single
Method: Data were collected over a 312-hour period at protocol-specified intervals. Sampling was most frequent during the first 2 hours post drug administration. Treatment regimens were (i) otenaproxesul single dose 1500 mg (Total 1500 mg); (ii) crystalline otenaproxesul Day 1 single dose 1500 mg plus 100 mg on Days 2-5 (Total 1900 mg) or (iii) crystalline otenaproxesul single dose 2000 mg (Total 2000 mg).

[3] = Pharmacokinetics in Beagle dogs of five formulations (Example 15); assay type: in vivo; settings: Day 1, 1- and 12-hour time points
Method: The pharmacokinetics of five different formulations of otenaproxesul (formerly ATB-346) were evaluated in Beagle dogs. Five groups of dogs (n=3/group) were orally administered their assigned formulations once daily for four days. Blood samples were taken for a full 24-hour PK profile on Day 1 and on Day 4.
Group 1 was administered crystalline otenaproxesul, Group 2 was administered milled crystalline otenaproxesul, Group 3 was administered micro-milled crystalline otenaproxesul, Group 4 was administered exemplary ASD no. 1 (see Example 7A above) and Group 5 was administered exemplary ASD no. 4 (see Example 7A above). Dose administered was 15 mg/kg (human equivalent dose of 525 mg).
Crystalline otenaproxesul was administered to dog Groups 1-3 in gelatin capsules by oral gavage. Exemplary ASD no. 1 and exemplary ASD no. 4 were administered as oral suspensions to dog Groups 4-5.

In the case of COc1ccc2cc([C@H](C)C(=O)Oc3ccc(C(N)=S)cc3)ccc2c1 [otenaproxesul, (S)-4-carbamothioylphenyl 2-(6-methoxynaphthalen-2-yl) propanoate], the “subjects with liver transaminase elevations exceeding five times the upper limit of normal” value (liver transaminases) is reported as “Three” and the “duration of plasma naproxen metabolite greater than about 10 μg/mL” value [1] is reported as “over 72 hours”.

With COc1ccc2cc([C@H](C)C(=O)Oc3ccc(C(N)=S)cc3)ccc2c1 [crystalline otenaproxesul] the “M25 plasma concentration at 1 hour, Day 4, compared” value ([2]; crystalline HED 527 mg vs amorphous HED 562 mg) was “comparable M25 plasma concentrations”, the “Cmax Day 4/Day 1 ratio” value ([2]; dogs, HED 526.5 mg) was 1.4 and the “steady state pharmacokinetics of M25 compared” value ([2]; dogs, crystalline 526.5 mg vs amorphous 561.6 mg HED) was “virtually identical”. The liver adverse effects (liver adverse effects) was “No subjects in any of the three treatment arms exhibited any liver adverse effects” and the “lower M25 plasma concentration than the exemplary ASDs” value [3] was 10 ×.
